This is an account of results in US12396996B2, “Compounds, pharmaceutical compositions, and methods of their use in reversing cancer chemoresistance” (priority 2019, dated 2025).

The test system of the test is HMLE-SNAIL spheroids. In words: 3-D tumor spheroid assay (Sytox/DAPI staining). In kind it is cell-based, human. The following applies: Sytox staining. An excerpt:
FIGS. 1F-1I show the results of a 3-D tumor spheroid assay formed by the chemotherapy-resistant breast cancer cell line, HMLE-SNAIL. […] Tumor spheroids are a model of real in vivo tumors, as they form a 3-D cell mass in which the hypoxic and often nutrient depleted microenvironment at the center of the tumor is enriched with mesenchymal, chemotherapy-resistant TIC cells. […] By staining spheroids with Sytox, which stains dead cells green, and DAPI, which stains the nuclei of all cells (living or dead), total fraction of dead cells is calculated. Also, the location of dead cells within the sphere is visualized with Sytox (green) staining. The results of FIGS. 1F-1I indicate that chaetocin a selective and potent killer of inner cells of the spheroids, enriched with mesenchymal, chemotherapy-resistant TIC cells, compared to other compounds tested. FIGS. 1J-1K show the results of a tumorsphere assay performed with TICs grown on serum-free, non-adherent culture conditions. […] The results of FIGS. 1J-1K indicate that chaetocin is effective in eliminating TICs in a dose dependent-manner.
To determine whether chaetocin affects TIC death in a tumor-like environment, 3-D tumor spheroid assays were performed in the presence or absence of chaetocin. Tumor spheroids are a model of a real tumor, as they form a 3-D cell mass similar to tumors in vivo. The local microenvironment of a spheroid recapitulates many of the in vivo properties of tumor. Importantly, the hypoxic and often nutrient depleted microenvironment at the center of the tumor is favorable for converting epithelial, non-TIC, chemotherapy-sensitive cancer cells into mesenchymal, TIC-rich, chemotherapy-resistant cells. […] Pharmacological agents were added and cell viability was calculated by staining cells with Sytox, which stains dead cells green, and DAPI, which stains the nuclei of all cells (living or dead). to provide the total cell number. Using this method, the total fraction of dead cells was calculated and compared between different drug conditions. More importantly, the location of dead cells within the sphere is visualized with Sytox (green) staining. FIGS. 1G-1I show fluorescence images of tumor spheroids under control conditions (no treatment; FIG. 1G), under treatment with various experimental chemotherapeutic agents (Y-27632, LY-450139, and IWP-L6 (Wnt); FIG. 1H), and with chaetocin treatment (FIG. 1I). […] This family of kinases are thought to be important for survival of TIC cells. IWP-L6 is an inhibitor of Wnt pathway—a pathway important for TIC cell survival and formation. LY-450139 is a NOTCH pathway inhibitor. NOTCH is also important for TIC cell viability and survival. […]

In the case of `CC(C)[C@H](O)C(=O)N[C@@H](C)C(=O)N[C@@H]1C(=O)N(C)CCc2ccccc21` [LY-450139], the “location of dead cells within spheroid” value is “mostly result in death of cells on the exterior of the spheroid”.
`C[C@@H](N)[C@H]1CC[C@H](C(=O)Nc2ccncc2)CC1` [Y-27632]: the “location of dead cells within spheroid” value is given as “mostly result in death of cells on the exterior of the spheroid”.
The value for `O=C(CSc1nc2c(c(=O)n1-c1ccccc1)SCC2)Nc1ccc(-c2ccccc2)cn1` [IWP-L6] was “mostly result in death of cells on the exterior of the spheroid”.
